Laboratory results: US8945584B2, “Cell culture system of a hepatitis C genotype 3a and 2a chimera” (Hvidovre Hospital, priority 2007, dated 2015)

How the values were obtained:
[1] = tested on: Huh7.5 cells; assay: Percentage of infected cells by immuno-staining for HCV NS5A; type: cell-based, human
Description: Analyses were carried out as previously described with modifications. Huh7.5 cells were washed with PBS, trypsinized and plated on chamber slides (Nunc). After ˜24 hours cells were washed twice with PBS and fixed 5 min with ice-cold methanol. After washing 2× with PBS and 1× with PBS/Tween (0.1% Tween-20), slides were blocked with PBS containing bovine serum albumin (BSA, 1%) and skim milk (0.2%) for 1 hour at room temperature. Endogenous peroxidase staining was reduced by adding 3% H202 in PBS for 5 min. After washing as above the 1st antibody (anti-NS5A, 9E10, a generous gift from Charles M. Rice, used at 1:200 in PBS/Tween) was added and incubated at 4° C. overnight. After washing slides were incubated with secondary antibody (ECLTM Anti-mouse IgG, horseradish peroxidase linked whole antibody, Amersham Biosciences, used at 1:300 in PBS/Tween) for 30 min at room temperature. After washing horseradish peroxidase substrate (DAB substrate kit, DAKO) was added. After incubation for 30 min, slides were washed with H2O, mounted with Fluoromount-G (Southern Biotech) and cover slipped. Percentage of infected cells was evaluated by light microscopy assigning values of 0% (no cells infected), 1%, 5%, 10-90% (in steps of 10%), 95% and 100% (all cells infected).

[2] = tested on: Huh7.5 cells; assay: Determination of 50% tissue culture infectious doses (TCID50) of culture supernatants; type: cell-based, human; details: for infectivity titer (TCID50): day 9 post-transfection, one of 6 replicate wells infected with undiluted supernatant
Description: To determine the efficiency of the developed system, HCV RNA titers are determined in IU/ml (international units/ml) with Taq-Man Real-Time-PCR and infectious titers are determined with a tissue culture infectious dose-50 method. This titer indicates the dilution of the examined viral stock, at which 50% of the replicate cell cultures used in the essay become infected and is given in TCID50/ml.
In general, the TCID50 of culture supernatants was determined as previously described. Huh7.5 cells were washed with PBS, trypsinized and plated at 6×10^3 cells per well of a poly-D-lysine coated 96 well plate (Nunc). After ˜24 hrs cells were incubated with 10-fold serial dilutions of viral stock cell culture supernatant in complete growth medium. For each dilution, six replicate wells were inoculated. After incubation for 48 hrs the plate was subjected to immuno staining for NS5A as described above. Wells were evaluated by light microscopy and scored positive if at least one positive cell could be detected. TCID50 values were calculated as described by Reed and Muench.
For determination of TCID50 Huh7.5 cells were plated at 6×10^3 cells/well on a poly-D-Lysine coated 96 well plate and infected with serial dilutions of virus containing cell culture supernatant in complete growth medium in replicates of 6 wells per dilution. After incubation for 48 hours cells were stained for NS5A expression. A well was counted positive, if at least one infected cell was visible. Calculation of TCID50 was done as previously described by Reed et al. † Average of 3 independent determinations, * average of 2 independent determinations, +1 determination. HCV RNA titers were determined with an TaqMan assay. Supernatants from transfection experiments were not tested in TaqMan due to DNA/RNA input from the transfection procedure. Specific infectivity was calculated as infectious units (TCID50/ml) per genome number (IU/ml).

[3] = tested on: Huh7.5 cells; assay: Real-time PCR (TaqMan) assay for HCV RNA titers in cell culture supernatants; type: cell-based, human; details: kinetic experiment, inoculated with ~10^4 TCID50, day 6 and 9
Description: RNA was purified from 200 μl of heat inactivated (56° C. for 30 min) cell culture supernatant and eluted in a final volume of 50 μl using the Total Nucleic Acid Isolation Kit (Roche) in combination with the Total NA Variable Elution Volume protocol on a MagNA Pure LC Instrument (Roche). As an internal control, Phocine Distemper Virus (PDV) was added to the lysis buffer in a concentration titrated to yield a Ct of ˜32 upon real-time PCR analysis. In parallel to RNA purified from cell culture supernatants, a quantitative HCV standard panel covering RNA concentrations of 0 to 5×10^6 IU/ml in one log increments (OptiQuant HCV Panel, AcroMetrix) was analysed. […] For HCV, primers and a FAM-labelled MGB-probe were directed against the 5′ UTR and were previously shown to perform equivalently against a panel of the six major HCV genotypes in a different TaqMan assay (Engle R E, Bukh J, and Purcell R H, 2007) For PDV, a ready-to-use primer/probe mix was used (Dr. H. G. M. Niesters, Department of Virology, Erasmus Medical Centre, Rotterdam, The Netherlands). […] HCV RNA titers (IU/ml) were calculated using a standard curve created from the known concentrations of the standard panel and their corresponding Ct values (cycle number, at which the normalised fluorescence signal rises above a fixed threshold of 0.2 […] to the amount of template in the PCR reaction). […]

[4] = tested on: S52/JFH1(A4550C); assay: Interferon alfa 2b treatment of infected Huh7.5 cultures, % NS5A positive cells; type: cell-based, hepatitis C virus; details: 5001 U/mL interferon alfa 2b in medium (FIG. 10 legend: 500 IU/mL)
Description: (§1) FIG. 10. S52/JFH1 viruses are sensitive to treatment with Interferon alfa. […] Huh7.5 cells were infected with 10^4 TCID50 (MOI 0,003) of the indicated viruses. On day 5 after infection, cultures were evaluated for % of NS5A positive cells (first datapoint) and 4×10^5 cells of the respective culture were plated per well of a 6-well dish. After 24 hrs incubation, treatment with cell culture medium containing 500 IU/mL interferon alfa 2b was started. Interferon containing medium was replaced at the time points indicated by arrows. Cultures were evaluated for the % of NS5A positive cells at the indicated timepoints.
(§2) As proof of principle of using the present invention in testing of anti-hepatitis C virus substances, the effects of interferon alfa, currently used in combination therapy for HCV, were tested on the infected cell culture. […] Thus we treated Huh7.5 cell cultures infected with J6/JFH1, S52/JFH1(T2718G; A4550C) and S52/JFH1(A4550C) with cell culture medium containing 5001 U/mL interferon alfa 2b (FIG. 10). After initiation of treatment, we observed for all cultures a fast decline of HCV antigen positive cells. Thus, for J6/JFH1 and S52/JFH1(T2718G; A4550C) the percentage of NS5A positive cells was 90 and 60 the day prior to treatment, whereas only 20% and 10% NS5A positive cells were detected in the respective cultures on day 3 of treatment ([…]).
(§3) HCV cell culture systems could be important tools for testing of antiviral therapeutics. […] Thus Huh7.5 cell cultures infected with J6/JFH1, S52/JFH1(T2718G; A4550C) and S52/JFH1(A4550C) were treated with cell culture medium containing 5001 U/mL interferon alfa 2b. After initiation of treatment, a fast decline of HCV antigen positive cells was shown for all cultures. Thus, for J6/JFH1 and S52/JFH1(T2718G; A4550C) the percentage of NS5A positive cells was 90 and 60 the day prior to treatment, whereas only 20% and 10% NS5A positive cells were detected in the respective cultures on day 3 of treatment (FIG. 10).

[5] = tested on: S52/JFH1(T2718G; A4550C); assay: as above; type: cell-based, hepatitis C virus
Description: as §1, §2, §3

[6] = tested on: J6/JFH1; assay: as above; type: cell-based, hepatitis C virus
Description: as §1, §2, §3

[7] = 5001 U/mL interferon alfa 2b in medium (FIG. 10 legend: 500 IU/mL)
[8] = day 6, cultures not treated for 48 hrs

S52/JFH1: intergenotypic 3a/2a recombinant HCV: Core-NS2 of strain S52, 5' UTR, NS3-NS5B and 3' UTR of JFH1
% infected cells ([1]; First experiment, 2nd viral passage (used for kinetic experiment), day 11): 95% | % infected cells ([1]; First experiment, 3rd viral passage (inoculated with 10^2.5 TCID50), day 12): 95% | % infected cells ([1]; First experiment, 3rd viral passage (inoculated with 10^4 TCID50), day 3): 90% | % infected cells ([1]; First experiment, transfection, experimental day 11): 40% | % infected cells ([1]; Second experiment, 1st viral passage, experimental day 8): 95% | % infected cells ([1]; Second experiment, transfection, experimental day 33): 70% | NS5A antigen positive cells ([1]; day 1 after transfection with RNA transcripts): ~10% | time until viruses spread to the entire culture ([1]; naive Huh7.5 cells infected with approximately 10^2.5 TCID50): 12 days | time until viruses spread to the entire culture ([1]; naive Huh7.5 cells infected with approximately 10^3 TCID50): 9 days | time until viruses spread to the entire culture ([1]; naive Huh7.5 cells infected with approximately 10^4 TCID50): 3 days | infectivity titer (TCID50) [2]: undeterminable | infectivity titer (TCID50) ([2]; listed as pS52/JFH1): non-determinable | Peak infectivity titers after transfection ([2]; days 3, 7 and 9 post-transfection (FIG. 5B)): significantly lower titers | peak HCV RNA titers [3]: ~10^7 copies/ml

interferon alfa 2b
HCV antigen positive cells after initiation of treatment [4]: fast decline | HCV antigen positive cells after initiation of treatment [5, 7]: fast decline | NS5A positive cells ([5]; day 3 of treatment, 60 the day prior to treatment): 10% | NS5A positive cells [5, 8]: 40% | HCV antigen positive cells after initiation of treatment [6, 7]: fast decline | NS5A positive cells ([6]; day 3 of treatment, 90 the day prior to treatment): 20% | NS5A positive cells [6, 8]: 40%
